Tests used:
mice [1] = experiment: Depression-related behavior, sucrose preference test, repeated treatment; format: in vivo
Excerpt: (§1) Anxiety-like behaviors were studied in the elevated plus maze (EPM), a rodent model used to evaluate the putative anxiogenic or anxiolytic effects of pharmacological compounds. Depression-related behaviors were studied using the sucrose preference test as a model of anhedonia, one of the cardinal symptoms of depression.
The sucrose preference test was done in the home cage. Two identical bottles, one containing water and the other containing a 2% sucrose solution, were placed in the hopper of each cage. The mice had unlimited access to water and sucrose solutions during the active phase—the dark phase of the light/dark cycle that started at 20:00. The volume of water and of sucrose solution consumed was measured over two […] intervals, the first between 19:00 and 20:30 and the second between 20:30 and 22:00. At each timepoint, the bottles were weighed, and the intake volume was calculated by subtracting the […].
(§2) The EPM assessment was done on day 26, and the sucrose preference test was done on day 28.

mice [2] = system: mice; set-up: method as in earlier work; details: 10 mg/kg, not run in parallel; cited from earlier work
mice [3] = experiment: Precipitated withdrawal in THC-dependent mice; format: in vivo
Protocol: From day 1 to days 4–5, mice were injected i.p. with vehicle or THC (20 mg kg^−1) twice per day. On the last day of treatment, mice in the THC group received rimonabant or AEF0117. All other animals received the respective vehicle. […] For the measure of precipitated withdrawal, mice were placed in a novel home cage, and a video camera was positioned in front of each cage to record behavior. Scoring was performed for 1 min every 5-min period. Two withdrawal signs were analyzed—paw tremors and head shaking—because they are the most common signs of THC withdrawal observed in mice[14].

DIO mice = experiment: Food intake and body weight in diet-induced obese mice, repeated treatment; format: in vivo
Protocol: Body weight and food intake were studied because they are reduced by repeated treatment with rimonabant both in mice[31] and in humans. DIO mice were used because the effects of CB1 antagonists are of greater amplitude in obese mice than in lean mice. Male C57BL/6J mice (8 weeks old) were fed ad libitum with a high-fat diet (HFD) for 8 weeks before the start of the pharmacological treatments. During pharmacological treatments, the HFD was maintained, and food intake and body weight were measured daily. The food consumed was calculated by subtracting the food left in the hoppers from the initial pre-weighed amount.

mice [4] = experiment: Glucocorticoid (corticosterone) secretion in mice; format: in vivo; details: glucocorticoid, 10 mg/kg the known ID100
Protocol: Blood sampling was performed 2, 5, 8 and 24 h after dosing (n = 3 per sex per dose per sampling time). For blood sampling, mice were anaesthetized under isoflurane, and blood was collected by cardiac puncture. Blood was centrifuged, and plasma was taken and frozen at −80 °C until quantifications of corticosterone by GC–MS/MS.

mice [5] = experiment: Anxiety-related behavior, elevated plus maze, repeated treatment; format: in vivo
Excerpt: as §1
The EPM apparatus comprises four elevated arms arranged in a cross-like shape, with the two opposite arms enclosed by walls and the other two arms open. For all experiments, mice were placed in the center of the EPM and were free to explore the maze for 5 min after receiving the treatment. The time spent and the number of entries into the open and closed arms were measured by an automatic video tracking system (EthoVision XT version 12, Noldus Information Technology). A decrease in the percentage of visits and/or the time spent in open arms is considered an index of increased anxiety.
as §2

N fold ID100 at highest dose tested (mice [1]; depression, 10 mg/kg the known ID100): 1
Overall effect: increase in depression-related behaviors (mice [1]; mice, sucrose preference test, highest dose tested 10 mg/kg, run in parallel): Yes
Overall effect: precipitated withdrawal in THC-dependent mice (mice [3]; highest dose tested 10 mg/kg, run in parallel): Yes
N fold ID100 at highest dose tested (mice [3]; withdrawal, 10 mg/kg the known ID100): 1
N fold ID100 at highest dose tested (mice [4]): 1
N fold ID100 at highest dose tested (mice [5]; anxiety, 10 mg/kg the known ID100): 1
Overall effect: increase in anxiety-related behaviors (mice [5]; mice, elevated plus maze, highest dose tested 10 mg/kg, run in parallel): Yes
SMILES: Cc1c(C(=O)NN2CCCCC2)nn(-c2ccc(Cl)cc2Cl)c1-c1ccc(Cl)cc1 [rimonabant, Rimonabant]
Overall effect: increase in glucocorticoid secretion (mice [2]): Yes
body weight in DIO mice vs vehicle (DIO mice; 10 mg/kg): decreased
N fold ID100 at highest dose tested (DIO mice; food-intake, 10 mg/kg the known ID100): 1
Overall effect: inhibition of spontaneous food-intake (DIO mice; mice, highest dose tested 10 mg/kg, run in parallel): Yes
